Consider 27 compounds from US20080234266A1, “Squaric Acid Derivatives II” (priority 2005, published 2008).

Some results are limits rather than exact numbers.

For the test, the target named is T1, CHK1 kinase (Homo sapiens, UniProt O14757).
T1 construct: glutathione S-transferase (GST); made in house; host or cells: Sf21 insect cells (S. frugiperda), baculovirus
T1 sequence (O14757 1-476): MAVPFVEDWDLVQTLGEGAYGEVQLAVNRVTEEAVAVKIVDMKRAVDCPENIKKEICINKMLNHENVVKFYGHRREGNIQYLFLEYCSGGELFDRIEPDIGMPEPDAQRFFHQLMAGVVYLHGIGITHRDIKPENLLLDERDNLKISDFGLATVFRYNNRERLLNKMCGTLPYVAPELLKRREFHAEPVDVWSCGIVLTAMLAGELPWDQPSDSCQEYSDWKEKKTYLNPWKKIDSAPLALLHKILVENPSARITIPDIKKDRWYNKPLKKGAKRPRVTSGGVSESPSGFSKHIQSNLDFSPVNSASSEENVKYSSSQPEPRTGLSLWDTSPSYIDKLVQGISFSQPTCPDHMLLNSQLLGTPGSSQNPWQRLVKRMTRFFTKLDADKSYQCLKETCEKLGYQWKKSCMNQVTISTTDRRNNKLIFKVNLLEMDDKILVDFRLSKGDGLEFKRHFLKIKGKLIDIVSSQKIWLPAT
Nature of the test: Flashplate method (CHK1), measurement of the CHK1 kinase activity. The class given is biochemical. The note with it: class symbols; 'Affinity to receptors'. How it is done: CHK1 kinase is expressed for the purposes of protein production in insect cells (Sf21; S. frugiperda) and subsequent purification by affinity chromatography as fusion protein with glutathione S-transferase in a baculovirus expression vector. The cultivation, infection and digestion of the cells as well as the purification of the fusion protein by column chromatography are carried out in accordance with manufacturer-oriented generic working instructions.
The kinase activity is measured using various available measurement systems. In the scintillation proximity method (Sorg et al., J. of. Biomolecular Screening, 2002, 7, 11-19), the flashplate method or the filter binding test, the radioactive phosphorylation of a protein or peptide as substrate is measured using radioactively labelled ATP (γ^32P-ATP, (γ^33P-ATP). In the case of the presence of an inhibitory compound, a reduced radioactive signal, or none at all, can be detected. Furthermore, homogeneous time-resolved fluorescence resonance energy transfer (HTR-FRET) and fluorescence polarisation (FP) technologies are useful as assay methods (Sills et al., J. of Biomolecular Screening, 2002, 191-214).
The test plates used are 384-well streptavidin-coated Flashplates Plus® from Perkin Elmer (Cat.No. SMP410A001PK). The assay plate is equilibrated with 75 μl of assay buffer per well 30 min before commencement of the experiment. The buffer is sucked out before commencement of the experiment, and the components of the kinase reaction described below are pipetted onto the plate.
CHK1 kinase, a biotinylated substrate peptide (for example CHKtide: […]), is incubated with radioactively labelled ATP in the presence and absence of test substances at 30° Celsius and a total volume of 50 μl. The reaction is terminated using 25 μl of a 0.2 M EDTA solution. After incubation for 30 min at room temperature, the supernatants are filtered off with suction, and the wells are washed three times with 100 μl of 0.9% NaCl solution each time. The measurement of the bound radioactivity is carried out by means of a scintillation measuring instrument (Topcount NXT, Perkin-Elmer).
The full value used is the inhibitor-free kinase reaction. This should be approximately in the range 3000-4000 cpm. The pharmacological zero value used is staurosporin in a final concentration of 0.1 μM. The inhibitory values (IC50) are determined using the program RS1_MTS ( ).
Kinase reaction conditions per well:
0.15 μg of CHKtide ([…])
50 μl total volume (1-fold assay buffer reaction conditions)
Solutions used: • assay buffer:
0.1 mM Titriplex VI (EGTA
10 mM magnesium acetate 0.1% mercaptoethanol
pH=7.5 (to be set using hydrochloric acid) Bovine serum albumin (final concentration 0.1%) is not added until just before use. • stop solution:
0.2 M TitriplexIII (EDTA)
• γ^33P-ATP (Perkin-Elmer) • CHK1 kinase preparations: specific activity>50 U/mg • CHKtide solution: biotinylated peptide substrate (Biotrend) stored as stock solution (concentration 0.15 mg/ml).
Turning to `Cn1cnc2ccc(Nc3c(NCc4cccc(O)c4)c(=O)c3=O)cc21` [Compound A52, 3-(3-hydroxybenzylamino)-4-(3-methyl-3H-benzimidazol-5-ylamino)cyclobut-3-ene-1,2-dione], the IC50 is less than 1000 nM.

The compound `COc1cccc([C@H](C)Nc2c(Nc3ccc4c(c3)ncn4C)c(=O)c2=O)c1` [Compound A51, 3-[(S)-1-(3-methoxyphenyl)ethylamino]-4-(1-methyl-1H-benzimidazol-5-ylamino)cyclobut-3-ene-1,2-dione] showed an IC50 of more than 1000 nM.

Turning to `CCOC(=O)c1cc2cc(Nc3c(NCc4cccc(O)c4)c(=O)c3=O)ccc2[nH]1` [Compound A81, 3-(2-ethoxycarbonyl-1H-indol-5-ylamino)-4-(3-hydroxybenzylamino)cyclobut-3-ene-1,2-dione], the IC50 is more than 1000 nM.

In the case of `O=c1c(NCc2cccc(Cl)c2)c(Nc2ccc3[nH]cnc3c2)c1=O` [Compound A33, 3-(1H-benzimidazol-5-ylamino)-4-(3-chloro-benzylamino)cyclobut-3-ene-1,2-dione], the IC50 was more than 1000 nM.

The compound `O=c1c(NCc2ccc3[nH]ccc3c2)c(Nc2ccc3[nH]cnc3c2)c1=O` [Compound A79, 3-(1H-benzimidazol-5-ylamino)-4-[(1H-indol-5-ylmethyl)amino]cyclobut-3-ene-1,2-dione] displayed an IC50 of more than 1000 nM.

`O=c1c(NCc2cccc(OC(F)F)c2)c(Nc2ccc3nc[nH]c3c2)c1=O` [Compound A164, 3-(3H-benzimidazol-5-ylamino)-4-(3-difluoro-methoxybenzylamino)cyclobut-3-ene-1,2-dione] yielded an IC50 of more than 1000 nM.

As to `C[C@@H](Nc1c(Nc2ccc3[nH]cnc3c2)c(=O)c1=O)c1cccc(O)c1` [Compound A3, 3-(1H-benzimidazol-5-ylamino)-4-[(R)-1-(3-hydroxyphenyl)ethylamino]cyclobut-3-ene-1,2-dione], the IC50 was less than 100 nM.

`Cc1cc(Nc2c(NCc3cccc(O)c3)c(=O)c2=O)cn2ccnc12` [Compound A55, 3-(3-hydroxybenzylamino)-4-(8-methyl-imidazo[1,2-a]pyridin-6-ylamino)cyclobut-3-ene-1,2-dione] registered an IC50 of more than 1000 nM.

As for `COc1cc(CNc2c(Nc3ccc4[nH]cnc4c3)c(=O)c2=O)ccc1F` [Compound A76, 3-(1H-benzimidazol-5-ylamino)-4-(4-fluoro-3-methoxybenzylamino)cyclobut-3-ene-1,2-dione], the IC50 is more than 1000 nM.

`COc1ccc(CNc2c(Nc3ccc4[nH]cnc4c3)c(=O)c2=O)cc1O` [Compound A91, 3-(1H-benzimidazol-5-ylamino)-4-(3-hydroxy-4-methoxybenzylamino)cyclobut-3-ene-1,2-dione] registered an IC50 of more than 1000 nM.

As to `COc1cccc(CNc2c(Nc3ccc4ncsc4c3)c(=O)c2=O)c1` [Compound A122, 3-(benzothiazol-6-ylamino)-4-(3-methoxy-benzylamino)cyclobut-3-ene-1,2-dione], the IC50 was more than 1000 nM.

Compound `Cc1c(O)cccc1CNc1c(Nc2ccc3[nH]cnc3c2)c(=O)c1=O` [Compound A97, 3-(1H-benzimidazol-5-ylamino)-4-(3-hydroxy-2-methylbenzylamino)cyclobut-3-ene-1,2-dione] gave an IC50 of more than 1000 nM.

In turn, `O=c1c(NCc2ccc(F)c(F)c2)c(Nc2ccc3[nH]cnc3c2)c1=O` [Compound A43, 3-(1H-benzimidazol-5-ylamino)-4-(3,4-di-fluorobenzylamino)cyclobut-3-ene-1,2-dione] came in with an IC50 of more than 1000 nM.

On to `COCCn1cnc2ccc(Nc3c(NCc4cccc(S(N)(=O)=O)c4)c(=O)c3=O)cc21` [Compound A70, 3-[3-(2-methoxyethyl)-3H-benzimidazol-5-ylamino]-4-(3-aminosulfonylbenzylamino)-cyclobut-3-ene-1,2-dione], for which the IC50 is more than 1000 nM.

`O=c1c(NCc2cc(O)ccc2F)c(Nc2ccc3[nH]cnc3c2)c1=O` [Compound A136, 3-(1H-benzimidazol-5-ylamino)-4-(2-fluoro-5-hydroxybenzylamino)cyclobut-3-ene-1,2-dione] showed an IC50 of more than 1000 nM.

Compound `CCN(CC)CCn1cnc2ccc(Nc3c(NCc4ccc(-c5nnn[nH]5)cc4)c(=O)c3=O)cc21` [Compound A167, 3-[3-(2-diethylaminoethyl)-3H-benzimidazol-5-ylamino]-4-[4-(1H-tetrazol-5-yl)benzyl-amino]cyclobut-3-ene-1,2-dione] gave an IC50 of more than 1000 nM.

In turn, `COC(=O)CC(Nc1c(Nc2ccc3[nH]cnc3c2)c(=O)c1=O)c1cccc(O)c1` (stereo not drawn) [Compound A101, methyl 3-[2-(1H-benzimidazol-5-ylamino)-3,4-dioxocyclobut-1-enylamino]-3-(3-hydroxy-phenyl)propionate] showed an IC50 of less than 1000 nM.

`O=c1c(NCc2cc(O)cc(O)c2)c(Nc2ccc3[nH]cnc3c2)c1=O` [Compound A94, 3-(1H-benzimidazol-5-ylamino)-4-(3,5-di-hydroxybenzylamino)cyclobut-3-ene-1,2-dione] came in with an IC50 of less than 1000 nM.

`O=c1c(NCc2cccc(O)c2)c(Nc2cc3nc[nH]c3cc2Cl)c1=O` [Compound A12, 3-(1H-benzimidazol-6-chloro-5-ylamino)-4-(3-hydroxybenzylamino)cyclobut-3-ene-1,2-dione]: the IC50 was more than 1000 nM.

`CC(=O)Nc1cccc(CNc2c(Nc3ccc4[nH]cnc4c3)c(=O)c2=O)c1` [Compound A45, 3-(1H-benzimidazol-5-ylamino)-4-(3-acetamidobenzylamino)cyclobut-3-ene-1,2-dione]: the IC50 was more than 1000 nM.

Compound `COCCn1cnc2cc(Nc3c(N[C@H](C)c4cccc(OC)c4)c(=O)c3=O)ccc21` [Compound A72, 3-[1-(2-methoxyethyl)-1H-benzimidazol-5-ylamino]-4-[(R)-1-(3-methoxyphenyl)ethyl-amino]cyclobut-3-ene-1,2-dione] displayed an IC50 of more than 1000 nM.

`O=c1c(NCCc2cccc(O)c2)c(Nc2ccc3[nH]cnc3c2)c1=O` [Compound A142, 3-(1H-benzimidazol-5-ylamino)-4-[2-(3-hydroxyphenyl)ethylamino]cyclobut-3-ene-1,2-dione] showed an IC50 of more than 1000 nM.

Compound `NC(=O)c1cccc(CNc2c(Nc3ccc4[nH]cnc4c3)c(=O)c2=O)c1` [Compound A95, 3-(1H-benzimidazol-5-ylamino)-4-(3-amino-carbonylbenzylamino)cyclobut-3-ene-1,2-dione] had an IC50 of more than 1000 nM.

`CC(=O)NCCOc1cccc(CNc2c(Nc3ccc4[nH]cnc4c3)c(=O)c2=O)c1` [Compound A109, 3-(1H-benzimidazol-5-ylamino)-4-[3-(2-acetamidoethoxy)benzylamino]cyclobut-3-ene-1,2-dione] registered an IC50 of more than 1000 nM.

Consider `O=c1c(NCc2cccc(O)c2)c(Nc2ccc3cc[nH]c3c2)c1=O` [Compound A28, 3-(1H-indol-6-ylamino)-4-(3-hydroxybenzyl-amino)cyclobut-3-ene-1,2-dione], for which the IC50 is more than 1000 nM.

`NS(=O)(=O)c1cccc(CNc2c(Nc3ccc4[nH]cnc4c3)c(=O)c2=O)c1` [Compound A6, 3-(1H-benzimidazol-5-ylamino)-4-(3-amino-sulfonylbenzylamino)cyclobut-3-ene-1,2-dione] showed an IC50 of less than 1000 nM.

As for `COc1ccc(F)c(CNc2c(Nc3ccc4[nH]cnc4c3)c(=O)c2=O)c1` [Compound A85, 3-(1H-benzimidazol-5-ylamino)-4-(2-fluoro-5-methoxybenzylamino)cyclobut-3-ene-1,2-dione], the IC50 was more than 1000 nM.
